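Dose response: 5 concentrations. Exposure: 48 h. Format: 96-well plates. Endpoint: linear interpolation; highest concentration if not reached. GI50 is the concentration that inhibits growth by half. TGI: total growth inhibition.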
Tests used:
Test in all cases: NCI anticancer screen, dose series, 48 h
NCI/ADR-RES ovarian = tested on: NCI/ADR-RES ovarian
SK-MEL-2 melanoma = tested on: SK-MEL-2 melanoma
HOP-62 NSCLC = tested on: HOP-62 NSCLC
HOP-92 NSCLC = tested on: HOP-92 NSCLC
786-0 renal = tested on: 786-0 renal
TK-10 renal = tested on: TK-10 renal
SNB-19 CNS = tested on: SNB-19 CNS
ACHN renal = tested on: ACHN renal
SF-295 CNS = tested on: SF-295 CNS
NCI-H23 lung = tested on: NCI-H23 lung
SF-268 CNS = tested on: SF-268 CNS
SF-539 CNS = tested on: SF-539 CNS
U251 CNS = tested on: U251 CNS
BT-549 breast = tested on: BT-549 breast
RXF 393 renal = tested on: RXF 393 renal
HS 578T breast = tested on: HS 578T breast
MDA-MB-231 breast = tested on: MDA-MB-231 breast
CCRF-CEM leukemia = tested on: CCRF-CEM leukemia
SNB-75 CNS = tested on: SNB-75 CNS

For CC(=O)Nc1ccc(NC(=O)Nc2cccc(-c3nc(-c4ccc(NC(=O)c5cccs5)cc4Cl)no3)c2)cc1C(F)(F)F, the GI50 (NCI/ADR-RES ovarian) was 19700 nM, the TGI (NCI/ADR-RES ovarian) was greater than 100000 nM and the GI50 (SK-MEL-2 melanoma) was 2060 nM. The TGI (SK-MEL-2 melanoma) was 4150 nM, the GI50 (HOP-62 NSCLC) was 718 nM and the TGI (HOP-62 NSCLC) was 2250 nM. For the same compound, the GI50 (HOP-92 NSCLC) was 1090 nM, the TGI (HOP-92 NSCLC) was 3020 nM and the GI50 (786-0 renal) was 2120 nM. It also gave a TGI (786-0 renal) of 4760 nM, a GI50 (TK-10 renal) of 2190 nM and a TGI (TK-10 renal) of 5070 nM. For the same compound, the GI50 (SNB-19 CNS) was 692 nM, the TGI (SNB-19 CNS) was 2670 nM and the GI50 (ACHN renal) was 2670 nM. For the same compound, the TGI (ACHN renal) was 8410 nM, the GI50 (SF-295 CNS) was 1460 nM and the TGI (SF-295 CNS) was 2990 nM. It also gave a GI50 (NCI-H23 lung) of 1330 nM, a TGI (NCI-H23 lung) of 3040 nM and a GI50 (SF-268 CNS) of 1560 nM. For the same compound, the TGI (SF-268 CNS) was 4080 nM, the GI50 (SF-539 CNS) was 1450 nM and the TGI (SF-539 CNS) was 2910 nM. It also gave a GI50 (U251 CNS) of 354 nM, a TGI (U251 CNS) of 1080 nM and a GI50 (BT-549 breast) of 1680 nM. For the same compound, the TGI (BT-549 breast) was 4600 nM, the GI50 (RXF 393 renal) was 1140 nM and the TGI (RXF 393 renal) was 2450 nM. It also gave a GI50 (HS 578T breast) of 1830 nM, a TGI (HS 578T breast) of 4550 nM and a GI50 (MDA-MB-231 breast) of 666 nM. It also gave a TGI (MDA-MB-231 breast) of 2230 nM, a GI50 (CCRF-CEM leukemia) of 1830 nM and a TGI (CCRF-CEM leukemia) greater than 100000 nM. For the same compound, the GI50 (SNB-75 CNS) was 1310 nM and the TGI (SNB-75 CNS) was 2990 nM.
